From US20240408169A1 (priority 2023, published 2024)
Read-outs that look alike come from different tables or passages of the source. *1 amine or outer side, *2 acyl side, *3 side chain or, on linkers, in order; H or OH if unused. Where a SMILES comes first, the peptide text is derived from it. Bridges are numbered along the chain shown (N, C = ends). [ ]: non-standard residue; d: D form. The star is where a group is joined. X74 = C[C@@H]1CN(c2ccc(-c3ccc(Cl)cc3C[C@@H](C(=O)[*:2])N(C)[*:1])cc2)C[C@@H](C)O1; X21 = CN([C@@H](Cc1cc(Cl)ccc1-c1ccc(N2CCN3CCOC[C@H]3C2)cc1)C(=O)[*:2])[*:1]; X42 = CN([C@@H](Cc1cc(Cl)ccc1-c1cnn(S(=O)(=O)C2CC2)c1)C(=O)[*:2])[*:1]; X71 = CN([C@@H](Cc1cc(Cl)ccc1-c1ccc(N2CCOCC2)c(F)c1)C(=O)[*:2])[*:1]; X108 = CN([C@@H](Cc1cc(Cl)ccc1-c1ccc(CN2CCOCC2)cc1)C(=O)[*:2])[*:1]; X46 = CN([C@@H](Cc1cc(Cl)ccc1-c1ccc(S(C)(=O)=O)cc1)C(=O)[*:2])[*:1]; X19 = CN([C@@H](Cc1cc(Cl)ccc1-c1ccn2ccnc2c1)C(=O)[*:2])[*:1]; X26 = CN([C@@H](Cc1cc(F)ccc1-c1cnn(C2CC2)c1)C(=O)[*:2])[*:1]; X89 = CN([C@@H](Cc1cc(Cl)ccc1-c1cnn(CC#N)c1)C(=O)[*:2])[*:1]; NMe3Pal(2-OiBu,5-Cl) = CN[C@@H](Cc1cc(Cl)cnc1OCC(C)C)C(=O)O; NMehhhLys(Me) = CN([C@@H](CCCCCCCN(C)[*:3])C(=O)[*:2])[*:1]; X5 = CN([C@@H](Cc1cc(Cl)ccc1-c1cnn2c1OCCC2)C(=O)[*:2])[*:1]; X51 = CSc1cncc(-c2ccc(Cl)cc2C[C@@H](C(=O)[*:2])N(C)[*:1])c1; NMe3Pal(2-OiPr,5-Cl) = CN[C@@H](Cc1cc(Cl)cnc1OC(C)C)C(=O)O; X104 = CN([C@@H](Cc1cc(Cl)ccc1C1=CCOCC1)C(=O)[*:2])[*:1]; Oxane2carbonyl(2R-CF3) = O=C([C@@]1(C(F)(F)F)CCCCO1)*; Cyclobutanecarbonyl(1-CF3) = O=C(C1(C(F)(F)F)CCC1)*; X94 = CN([C@@H](Cc1cc(F)ccc1C1CC1)C(=O)[*:2])[*:1]; cBuCO(3,3-F2-1-CF3) = O=C(C1(C(F)(F)F)CC(F)(F)C1)*; Pro(trans-4-F) = O=C(O)[C@@H]1C[C@@H](F)CN1; Gly(cPr) = N[C@H](C(=O)O)C1CC1

Columns and labels:
CyclinE1/CDK2 = target: T1, CyclinE1/CDK2 (Homo sapiens, UniProt P24864); assay: Fluorescence Polarization (FP) competitive binding assay, Cyclin E1/Cdk2;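 note: readings taken after two-hour equilibration at room temperature in HEPES buffer with NaCl, DTT, NP-40 and BSA, IC50 fitted from eight-concentration serial dilution series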
T1 construct: purchased Eurofins, discovery 14-475

NCI-H1048 cells = assay: MTT proliferation assay, NCI-H1048; assay type: cell-based; settings: 5 days compound exposure, 1:3 serial dilution starting at 10 μM;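 note: Dose-response in 96-well plates over 8 or 10 concentration points, with exposure spanning 3-4 cell doublings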
WI-38 cells = assay: MTT proliferation assay, WI-38; assay type: cell-based; settings: 3 days compound exposure, 1:3 serial dilution starting at 10 μM;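 note: Eight- or ten-point dilution series, with exposure length chosen to span about three to four cell doublings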
CyclinA2/CDK2 = target: T2, CyclinA2/CDK2 (Homo sapiens, UniProt P20248); assay: Fluorescence Polarization (FP) competitive binding assay, Cyclin A2/Cdk2;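 note: plates equilibrated two hours at room temperature before polarization reading, IC50 fitted from eight-concentration compound titration curves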
T2 construct: purchased CRELUX Protein Services

OVCAR3 cells = assay: MTT proliferation assay, OVCAR3; assay type: cell-based; settings: 5 days compound exposure, 1:3 serial dilution starting at 10 μM;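 note: compound given as an 8- or 10-point series, one day after plating, with exposure covering roughly 3-4 cell doublings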
CyclinB1/CDK1 = target: T3, CyclinB1/CDK1 (Homo sapiens, UniProt P14635); assay: Fluorescence Polarization (FP) competitive binding assay, Cyclin B1/Cdk1;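 note: fluorescence polarization read after equilibration at room temperature, with IC50 taken from serially diluted dose-response curves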
T3 construct: purchased Eurofins, discovery 14-450

[1] = read-out: Cyclin B FP IC50; 10 nM Cyclin B1/Cdk1, 2 nM FAM probe; average of 2-3 independent experiments
[2] = 10 nM Cyclin E1/Cdk2, 2 nM FAM probe, average of 2-3 independent experiments, read-out: Cyclin E FP IC50
[3] = 8 nM Cyclin A2/Cdk2, 2 nM FAM probe, average of 2-3 independent experiments, read-out: Cyclin A FP IC50
[4] = 10 nM Cyclin B1/Cdk1, 2 nM FAM probe; average of 2-3 independent experiments; read-out: Cyclin B FP IC50

SMILES | IC50 (CyclinE1/CDK2) [nM] | GI50 (NCI-H1048 cells) [nM] | GI50 (WI-38 cells) [nM] | IC50 (CyclinA2/CDK2) [nM] | GI50 (OVCAR3 cells) [nM] | IC50 (CyclinB1/CDK1; [1]) [nM] | IC50 (CyclinE1/CDK2; [2]) [nM] | IC50 (CyclinA2/CDK2; [3]) [nM] | IC50 (CyclinB1/CDK1; [4]) [nM]
CC(C)C[C@@H]1NC(=O)[C@@H](N(C)C(=O)[C@@H](NC(=O)[C@@H]2C[C@@H](F)CN2C(=O)C2(C(F)(F)F)CC(F)(F)C2)C2CC2)CCCCCCCN(C)C(=O)[C@H](Cc2cc(Cl)ccc2-c2cnn(CC#N)c2)N(C)C1=O [Example 216] ({cBuCO(3,3-F2-1-CF3)}-[Pro(trans-4-F)][Gly(cPr)][NMehhhLys(Me)]L[X89]; lactam 3-C) | 470 | 10 | 15600 | 30 | 10 | 20 |  |  | 
CC(C)C[C@@H]1NC(=O)[C@@H](N(C)C(=O)[C@@H](NC(=O)[C@@H]2C[C@@H](F)CN2C(=O)C2(C(F)(F)F)CC(F)(F)C2)C2CC2)CCCCCCCN(C)C(=O)[C@H](Cc2cc(Cl)ccc2-c2ccc(S(C)(=O)=O)cc2)N(C)C1=O [Example 262] ({cBuCO(3,3-F2-1-CF3)}-[Pro(trans-4-F)][Gly(cPr)][NMehhhLys(Me)]L[X46]; lactam 3-C) |  | 10 | 16200 |  | 20 |  | 910 | 20 | 20
CC(C)C[C@@H]1NC(=O)[C@@H](N(C)C(=O)[C@@H](NC(=O)[C@@H]2C[C@@H](F)CN2C(=O)[C@@]2(C(F)(F)F)CCCCO2)C2CC2)CCCCCCCN(C)C(=O)[C@H](Cc2cc(Cl)ccc2-c2cnn(S(=O)(=O)C3CC3)c2)N(C)C1=O [Example 283] ({Oxane2carbonyl(2R-CF3)}-[Pro(trans-4-F)][Gly(cPr)][NMehhhLys(Me)]L[X42]; lactam 3-C) |  | 10 | 14200 |  | 10 |  | 180 | 30 | 20
CC(C)C[C@@H]1NC(=O)[C@@H](N(C)C(=O)[C@@H](NC(=O)[C@@H]2C[C@@H](F)CN2C(=O)[C@@]2(C(F)(F)F)CCCCO2)C2CC2)CCCCCCCN(C)C(=O)[C@H](Cc2cc(F)ccc2-c2cnn(C3CC3)c2)N(C)C1=O [Example 147] ({Oxane2carbonyl(2R-CF3)}-[Pro(trans-4-F)][Gly(cPr)][NMehhhLys(Me)]L[X26]; lactam 3-C) |  | 10 | 1240 |  | 10 |  | 100 | 20 | 20
CC(C)C[C@@H]1NC(=O)[C@@H](N(C)C(=O)[C@@H](NC(=O)[C@@H]2C[C@@H](F)CN2C(=O)C2(C(F)(F)F)CC(F)(F)C2)C2CC2)CCCCCCCN(C)C(=O)[C@H](Cc2cc(Cl)ccc2-c2ccc(N3C[C@@H](C)O[C@H](C)C3)cc2)N(C)C1=O [Example 389] ({cBuCO(3,3-F2-1-CF3)}-[Pro(trans-4-F)][Gly(cPr)][NMehhhLys(Me)]L[X74]; lactam 3-C) |  | 20 | 17600 |  | 10 |  | 790 | 20 | 20
CC(C)C[C@@H]1NC(=O)[C@@H](N(C)C(=O)[C@@H](NC(=O)[C@@H]2C[C@@H](F)CN2C(=O)C2(C(F)(F)F)CC(F)(F)C2)C2CC2)CCCCCCCN(C)C(=O)[C@H](Cc2cc(Cl)ccc2-c2ccc(N3CCN4CCOC[C@H]4C3)cc2)N(C)C1=O [Example 364] ({cBuCO(3,3-F2-1-CF3)}-[Pro(trans-4-F)][Gly(cPr)][NMehhhLys(Me)]L[X21]; lactam 3-C) |  | 10 | 3250 |  | 10 |  | 430 | 20 | 20
CC(C)C[C@@H]1NC(=O)[C@@H](N(C)C(=O)[C@@H](NC(=O)[C@@H]2C[C@@H](F)CN2C(=O)C2(C(F)(F)F)CC(F)(F)C2)C2CC2)CCCCCCCN(C)C(=O)[C@H](Cc2cc(Cl)ccc2C2=CCOCC2)N(C)C1=O [Example 51] ({cBuCO(3,3-F2-1-CF3)}-[Pro(trans-4-F)][Gly(cPr)][NMehhhLys(Me)]L[X104]; lactam 3-C) |  | 10 | 18800 |  | 10 |  | 890 | 20 | 20
CSc1cncc(-c2ccc(Cl)cc2C[C@H]2C(=O)N(C)CCCCCCC[C@H](N(C)C(=O)[C@@H](NC(=O)[C@@H]3C[C@@H](F)CN3C(=O)C3(C(F)(F)F)CC(F)(F)C3)C3CC3)C(=O)N[C@@H](CC(C)C)C(=O)N2C)c1 [Example 202] ({cBuCO(3,3-F2-1-CF3)}-[Pro(trans-4-F)][Gly(cPr)][NMehhhLys(Me)]L[X51]; lactam 3-C) |  | 40 | 9110 |  | 60 |  | 1490 | 50 | 20
CC(C)C[C@@H]1NC(=O)[C@@H](N(C)C(=O)[C@@H](NC(=O)[C@@H]2C[C@@H](F)CN2C(=O)C2(C(F)(F)F)CCC2)C2CC2)CC=CCCCCN(C)C(=O)[C@H](Cc2cc(Cl)ccc2Cl)N(C)C1=O [Example 48] |  | 40 | 15800 |  | 50 |  | 130 | 80 | 20
CC(C)C[C@@H]1NC(=O)[C@@H](N(C)C(=O)[C@@H](NC(=O)[C@@H]2C[C@@H](F)CN2C(=O)C2(C(F)(F)F)CC(F)(F)C2)C2CC2)CCCCCCCN(C)C(=O)[C@H](Cc2cc(F)ccc2C2CC2)N(C)C1=O [Example 121] ({cBuCO(3,3-F2-1-CF3)}-[Pro(trans-4-F)][Gly(cPr)][NMehhhLys(Me)]L[X94]; lactam 3-C) |  | 40 | 7610 |  | 70 |  | 130 | 50 | 20
CC(C)C[C@@H]1NC(=O)[C@@H](N(C)C(=O)[C@@H](NC(=O)[C@@H]2C[C@@H](F)CN2C(=O)C2(C(F)(F)F)CC(F)(F)C2)C2CC2)CCCCCCCN(C)C(=O)[C@H](Cc2cc(Cl)ccc2-c2ccn3ccnc3c2)N(C)C1=O [Example 236] ({cBuCO(3,3-F2-1-CF3)}-[Pro(trans-4-F)][Gly(cPr)][NMehhhLys(Me)]L[X19]; lactam 3-C) |  | 10 | 7330 |  | 20 |  | 780 | 30 | 20
CC(C)C[C@@H]1NC(=O)[C@@H](N(C)C(=O)[C@@H](NC(=O)[C@@H]2C[C@@H](F)CN2C(=O)C2(C(F)(F)F)CC(F)(F)C2)C2CC2)CCCCCCCN(C)C(=O)[C@H](Cc2cc(Cl)ccc2-c2ccc(N3CCOCC3)c(F)c2)N(C)C1=O [Example 348] ({cBuCO(3,3-F2-1-CF3)}-[Pro(trans-4-F)][Gly(cPr)][NMehhhLys(Me)]L[X71]; lactam 3-C) |  | 10 | 18000 |  | 10 |  | 880 | 20 | 20
CC(C)C[C@@H]1NC(=O)[C@@H](N(C)C(=O)[C@@H](NC(=O)[C@@H]2C[C@@H](F)CN2C(=O)C2(C(F)(F)F)CC(F)(F)C2)C2CC2)CCCCCCCN(C)C(=O)[C@H](Cc2cc(Cl)ccc2-c2cnn3c2OCCC3)N(C)C1=O [Example 191] ({cBuCO(3,3-F2-1-CF3)}-[Pro(trans-4-F)][Gly(cPr)][NMehhhLys(Me)]L[X5]; lactam 3-C) |  | 10 | 2050 |  | 10 |  | 260 | 20 | 20
CC(C)COc1ncc(Cl)cc1C[C@H]1C(=O)N(C)CCCCCCC[C@H](N(C)C(=O)[C@@H](NC(=O)[C@@H]2C[C@@H](F)CN2C(=O)C2(C(F)(F)F)CCC2)C2CC2)C(=O)N[C@@H](CC(C)C)C(=O)N1C [Example 230] ({Cyclobutanecarbonyl(1-CF3)}-[Pro(trans-4-F)][Gly(cPr)][NMehhhLys(Me)]L[NMe3Pal(2-OiBu,5-Cl)]; lactam 3-C) | 140 | 40 | 5050 | 30 | 90 | 20 |  |  | 
CC(C)C[C@@H]1NC(=O)[C@@H](N(C)C(=O)[C@@H](NC(=O)[C@@H]2C[C@@H](F)CN2C(=O)C2(C(F)(F)F)CCC2)C2CC2)CCCCCCCN(C)C(=O)[C@H](Cc2cc(Cl)cnc2OC(C)C)N(C)C1=O [Example 119] ({Cyclobutanecarbonyl(1-CF3)}-[Pro(trans-4-F)][Gly(cPr)][NMehhhLys(Me)]L[NMe3Pal(2-OiPr,5-Cl)]; lactam 3-C) |  | 250 | 8710 |  | 300 |  | 100 | 30 | 20
CC(C)C[C@@H]1NC(=O)[C@@H](N(C)C(=O)[C@@H](NC(=O)[C@@H]2C[C@@H](F)CN2C(=O)C2(C(F)(F)F)CC(F)(F)C2)C2CC2)CCCCCCCN(C)C(=O)[C@H](Cc2cc(Cl)ccc2-c2ccc(CN3CCOCC3)cc2)N(C)C1=O [Example 359, (2S,4R)—N—((S)-2-(((3S,6S,9S)-3-((4-chloro-4′-(morpholinomethyl)-[1,1′-biphenyl]-2-yl)methyl)-6-isobutyl-1,4-dimethyl-2,5,8-trioxo-1,4,7-triazacyclohexadecan-9-yl)(methyl)amino)-1-cyclopropyl-2-oxoethyl)-1-(3,3-difluoro-1-(trifluoromethyl)cyclobutane-1-carbonyl)-4-fluoropyrrolidine-2-carboxamide] ({cBuCO(3,3-F2-1-CF3)}-[Pro(trans-4-F)][Gly(cPr)][NMehhhLys(Me)]L[X108]; lactam 3-C) |  | 10 | 4560 |  | 10 |  | 680 | 20 | 20
